Assay results taken from paper PMC5748155 (Journal of medicinal chemistry, 2017).

How the values were obtained:
Conditions in all cases: relative to compound 2
[1] = system: HCV replicon D168V variant; type: cell-based, Hepatitis C virus
[2] = system: NS3/4A protease WT and variants; assay: Enzyme inhibition assays, statements across WT protease and variants; type: biochemical, Hepatitis C virus
[3] = system: HCV replicon D168A variant; type: cell-based, Hepatitis C virus
wild-type HCV replicon = type: cell-based, Hepatitis C virus
GT1a WT NS3/4A Protease = GT1a WT NS3/4A Protease (Hepatitis C virus genotype 1a, UniProt P27958); assay: Enzyme inhibition assay, wild-type GT1a protease; type: biochemical

COc1ccc2nc(C)c(O[C@@H]3C[C@H]4C(=O)N[C@]5(C(=O)NS(=O)(=O)C6CC6)C[C@H]5/C=C\CCCCC[C@H](NC(=O)OC(C)(C)C)C(=O)N4C3)nc2c1 [Compound 18b]
fold improvement in replicon potency against D168V variant [1]: ~ 2 fold

CCc1nc2ccccc2nc1O[C@@H]1C[C@H]2C(=O)N[C@]3(C(=O)NS(=O)(=O)C4CC4)C[C@H]3/C=C\CCCCC[C@H](NC(=O)OC(C)(C)C)C(=O)N2C1 [Compound 18g]
fold decrease in biochemical potency [2]: about 2 fold

CCc1nc2ccc(OC)cc2nc1O[C@@H]1C[C@H]2C(=O)N[C@]3(C(=O)NS(=O)(=O)C4CC4)C[C@H]3/C=C\CCCCC[C@H](NC(=O)OC3CCCC3)C(=O)N2C1 [Compound 22a, Cyclopentyl ((2R,6S,13aS,14aR,16aS,Z)-14a-((cyclopropylsulfonyl)carbamoyl)-2-((3-ethyl-7-methoxyquinoxalin-2-yl)oxy)-5,16-dioxo-1,2,3,5,6,7,8,9,10,11,13a,14,14a,15,16,16a-hexadecahydrocyclopropa[e]pyrrolo[1,2-a][1,4]diazacyclopentadecin-6-yl)carbamate]
fold enhanced replicon potency against D168A variant [3]: 2 fold | fold enhanced replicon potency against WT HCV (wild-type HCV replicon): 2 fold | fold increase in biochemical potency against WT protease (GT1a WT NS3/4A Protease): 2 fold
